The data set concerns human TGF-beta1 mRNA. Description: Antisense inhibition of human TGF-beta1 mRNA in HuVEC cells, single 10 nM dose, Lipofectamine 2000 (Example 2). Particulars: for % inhibition: 10 nM oligonucleotide, HuVEC, relative to untreated control cells; for inhibition of a TGF-beta1 mRNA: threshold lists of Oligo IDs, 10 nM. Format: cell-based. The method in brief:
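Percent inhibition relative to untreated controls, from qRT-PCR of mRNA corrected for total RNA (RIBOGREEN). Cells were exposed 4 h to 10 nM phosphorothioate 2-13-5 MOE gapmers with Lipofectamine 2000 at 5,000 cells/well. RNA was harvested after roughly 24 h recovery.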

Where [1] appears, read: gapmers targeted to SEQ ID NO: 2.
Setting [2] is: gapmers targeted to SEQ ID NO: 1.

Several values for one entry are separate records, joined by “and”; a condition that tells them apart may be missing. Equal values may be shown once. In the oligonucleotide strings, read from the 5' end, every base follows the letter of its sugar. An asterisk marks phosphorothioate; unmarked linkages are phosphodiester. Other units and linkages are bracketed, terminal groups are in braces. A string of capitals states the bases alone. e = 2'-O-(2-methoxyethyl) (MOE); [5mC] = 5-methylcytosine; d = 2'-deoxy (DNA)

Broadly, the % inhibition is the percentage by which the read-out fell short of the control.

“414085 (antisense e[5mC]*eT*dA*dA*dA*dG*dG*dA*dG*dA*d[5mC]*dA*dG*dA*dT*eG*e[5mC]*eT*e[5mC]*eA) [compound 414085]”: the “inhibition of a TGF-beta1 mRNA” value is 60% and 65%. Moreover, the “% inhibition” value under setting [1] stood at 66%. With “414117 (antisense eA*eG*dT*dG*d[5mC]*dA*dA*dT*dA*d[5mC]*dG*dG*dT*dA*dT*eT*eG*e[5mC]*eA*eG) [compound 414117]”, the “inhibition of a TGF-beta1 mRNA” value was 60% and 65% and 70% and 75% and 80%. Besides, the “% inhibition” value under setting [1] came out at 81%. For “414003 (antisense eA*eA*dG*dG*dT*dG*dG*dG*dT*dG*dG*dT*d[5mC]*dT*dT*eG*eA*eA*eT*eA) [compound 414003]”, the “inhibition of a TGF-beta1 mRNA” value is 60% and 65%. For the same substance, the “% inhibition” value under setting [2] turned out to be 67%. As for “413980 (antisense e[5mC]*e[5mC]*dG*dG*d[5mC]*dT*d[5mC]*d[5mC]*d[5mC]*dA*dG*d[5mC]*dG*dG*d[5mC]*eA*eA*e[5mC]*eG*eG) [compound 413980]”, the “inhibition of a TGF-beta1 mRNA” value is 60% and 65% and 70%. Further, the “% inhibition” value under setting [2] is on record as 74%. In the case of “414012 (antisense eG*eG*d[5mC]*dG*d[5mC]*dG*dA*dT*d[5mC]*dT*dG*dG*dT*dA*d[5mC]*e[5mC]*eA*eG*eA*eA) [compound 414012]”, the “inhibition of a TGF-beta1 mRNA” value is 60% and 65% and 70% and 75% and 80% and 85%. In addition, the “% inhibition” value under setting [2] came to 87%. As for “414095 (antisense eA*eA*dT*dT*d[5mC]*d[5mC]*dA*dG*dT*dA*dT*dG*d[5mC]*d[5mC]*dA*eG*eT*eA*eT*eT) [compound 414095]”, the “% inhibition” value under setting [1] was 46%. On to “414034 (antisense e[5mC]*e[5mC]*dT*dT*dA*dA*dA*dT*dA*d[5mC]*dA*dG*d[5mC]*d[5mC]*d[5mC]*e[5mC]*e[5mC]*eA*eT*eG) [compound 414034]”, for which the “inhibition of a TGF-beta1 mRNA” value was 60% and 65%. Besides, the “% inhibition” value under setting [2] was 68%. With “414088 (antisense eT*eT*d[5mC]*dT*dA*dG*d[5mC]*dA*dT*dT*d[5mC]*dT*dA*dG*dA*eA*eT*e[5mC]*e[5mC]*e[5mC]) [compound 414088]”, the “inhibition of a TGF-beta1 mRNA” value was 60% and 65%. The “% inhibition” value under setting [1] was 66%. Consider “414043 (antisense e[5mC]*e[5mC]*dT*dT*dG*dA*dT*dG*d[5mC]*d[5mC]*dG*dG*dG*d[5mC]*dA*eA*eA*eG*eG*eA) [compound 414043]”, for which the “inhibition of a TGF-beta1 mRNA” value was found to be 60%. The “% inhibition” value under setting [2] was 64%.

In the case of “413977 (antisense e[5mC]*e[5mC]*d[5mC]*dA*dG*d[5mC]*dG*dG*d[5mC]*dA*dA*d[5mC]*dG*dG*dA*eA*eA*eA*eG*eT) [compound 413977]”, under setting [2], the “% inhibition” value is 57%. For the substance “414038 (antisense eA*e[5mC]*dG*dG*dG*dT*dG*dT*d[5mC]*d[5mC]*dT*dT*dA*dA*dA*eT*eA*e[5mC]*eA*eG) [compound 414038]”, the “inhibition of a TGF-beta1 mRNA” value is 60% and 65% and 70% and 75% and 80% and 85%. The “% inhibition” value under setting [2] worked out at 85%. In the case of “414114 (antisense eT*eT*dT*d[5mC]*d[5mC]*dA*dA*dG*dA*dG*d[5mC]*d[5mC]*dA*d[5mC]*dA*eG*eA*eA*eG*e[5mC]) [compound 414114]”, the “% inhibition” value under setting [1] was 46%.

“414101 (antisense eG*eA*d[5mC]*dA*dG*d[5mC]*dA*dA*dG*dA*d[5mC]*d[5mC]*dA*dA*d[5mC]*eA*e[5mC]*e[5mC]*eT*eT) [compound 414101]”: the “inhibition of a TGF-beta1 mRNA” value is 60% and 65% and 70%. Moreover, the “% inhibition” value under setting [1] worked out at 70%. In the case of “414084 (antisense eT*e[5mC]*dA*dG*d[5mC]*d[5mC]*d[5mC]*dA*dA*dG*d[5mC]*dA*d[5mC]*dA*dG*e[5mC]*eA*eG*e[5mC]*eA) [compound 414084]”, the “inhibition of a TGF-beta1 mRNA” value was 60% and 65% and 70% and 75%. Further, the “% inhibition” value under setting [1] worked out at 75%. On to “414087 (antisense eG*eT*dG*dA*d[5mC]*d[5mC]*dT*dT*d[5mC]*d[5mC]*dA*dA*d[5mC]*dT*dT*eT*eG*eA*eA*eT) [compound 414087]”, for which the “inhibition of a TGF-beta1 mRNA” value is 60% and 65% and 70% and 75%. In addition, the “% inhibition” value under setting [1] stood at 77%. On to “414110 (antisense eG*eA*dA*d[5mC]*dA*dA*dA*dT*dT*dT*dT*d[5mC]*d[5mC]*dT*dA*eT*eG*eA*eA*eA) [compound 414110]”, for which the “% inhibition” value under setting [1] is recorded as 14%. With “414039 (antisense eG*e[5mC]*dA*d[5mC]*dG*dG*dG*dT*dG*dT*d[5mC]*d[5mC]*dT*dT*dA*eA*eA*eT*eA*e[5mC]) [compound 414039]”, the “inhibition of a TGF-beta1 mRNA” value is 60% and 65% and 70% and 75% and 80%. Besides, under setting [2], the “% inhibition” value is 83%.

For the substance “414061 (antisense eT*eG*dT*dG*dT*dG*dA*d[5mC]*d[5mC]*dA*dT*dG*dG*dG*d[5mC]*eA*eG*eT*eT*eA) [compound 414061]”, the “inhibition of a TGF-beta1 mRNA” value is 60% and 65%. The “% inhibition” value under setting [1] turned out to be 69%. With “413997 (antisense eA*eA*dA*dA*dG*dT*d[5mC]*dT*dT*dT*dG*d[5mC]*dG*dG*dG*eA*eG*eG*e[5mC]*e[5mC]) [compound 413997]”, under setting [2], the “% inhibition” value was found to be 41%. As for “414092 (antisense eG*eA*dG*dA*dT*dA*d[5mC]*d[5mC]*dA*dA*dT*dA*dT*dT*d[5mC]*eT*eG*e[5mC]*eT*eT) [compound 414092]”, the “inhibition of a TGF-beta1 mRNA” value was 60% and 65% and 70% and 75% and 80% and 85%. In addition, under setting [1], the “% inhibition” value worked out at 86%. As to “413985 (antisense e[5mC]*e[5mC]*d[5mC]*d[5mC]*dG*d[5mC]*dG*d[5mC]*d[5mC]*dT*d[5mC]*d[5mC]*dG*dG*d[5mC]*eT*e[5mC]*e[5mC]*e[5mC]*eA) [compound 413985]”, the “inhibition of a TGF-beta1 mRNA” value was 60% and 65%. For the same substance, the “% inhibition” value under setting [2] is given as 66%. With “413971 (antisense eG*eG*d[5mC]*d[5mC]*dT*d[5mC]*dA*dG*dG*d[5mC]*dT*dG*d[5mC]*dT*d[5mC]*e[5mC]*eT*e[5mC]*eG*eG) [compound 413971]”, the “inhibition of a TGF-beta1 mRNA” value was 60% and 65% and 70% and 75%. In addition, the “% inhibition” value under setting [2] came to 78%. On to “414013 (antisense eT*eG*dG*dG*d[5mC]*dG*d[5mC]*dG*dA*dT*d[5mC]*dT*dG*dG*dT*eA*e[5mC]*e[5mC]*eA*eG) [compound 414013]”, for which the “inhibition of a TGF-beta1 mRNA” value is 60% and 65% and 70% and 75% and 80% and 85% and 90%. For the same substance, the “% inhibition” value under setting [2] is recorded as 90%. As for “414063 (antisense eA*eA*dG*dT*d[5mC]*dG*dA*d[5mC]*dT*dA*dA*dG*dG*d[5mC]*dT*eG*eG*e[5mC]*eA*e[5mC]) [compound 414063]”, the “inhibition of a TGF-beta1 mRNA” value was 60% and 65% and 70% and 75% and 80%. The “% inhibition” value under setting [1] was found to be 80%.

Take “414120 (antisense e[5mC]*eA*d[5mC]*dA*d[5mC]*d[5mC]*d[5mC]*dT*dG*dG*dA*dA*d[5mC]*dA*dT*eA*e[5mC]*eA*eA*eA) [compound 414120]”: the “% inhibition” value under setting [1] is given as 40%. Turning to “414076 (antisense eG*eT*dT*d[5mC]*d[5mC]*d[5mC]*d[5mC]*dA*dG*d[5mC]*dT*dA*d[5mC]*d[5mC]*dT*eA*eG*e[5mC]*e[5mC]*eA) [compound 414076]”, the “% inhibition” value under setting [1] turned out to be 57%. “414115 (antisense eT*eT*dT*dT*d[5mC]*d[5mC]*dA*dT*dA*dA*dT*dA*dA*dA*dG*eG*eA*eA*eT*eT) [compound 414115]”: the “% inhibition” value under setting [1] was found to be 18%. Still for that read-out and setting: next, “414072 (antisense eG*e[5mC]*d[5mC]*dG*dA*dA*dG*dG*dT*dG*dT*dT*dT*dT*d[5mC]*eT*eT*eG*e[5mC]*e[5mC]) [compound 414072]”: 48%.

As to “414112 (antisense eG*eG*d[5mC]*dA*dG*d[5mC]*dA*dT*d[5mC]*dA*d[5mC]*d[5mC]*dT*dG*dG*eG*eA*eA*e[5mC]*eT) [compound 414112]”, the “% inhibition” value under setting [1] was determined as 57%. On the same count and under the same terms, the figure for “414081 (antisense eG*e[5mC]*dT*dT*dG*dG*dG*dA*d[5mC]*dT*d[5mC]*dA*dG*d[5mC]*dA*eT*eT*eG*eA*e[5mC]) [compound 414081]” is 49%; for “414056 (antisense eT*eT*dA*dT*dA*d[5mC]*d[5mC]*d[5mC]*dG*dT*dT*dT*dA*dA*dT*eA*eG*eA*eT*eG) [compound 414056]” it is 41%.

On to “414017 (antisense eA*eT*dA*dA*d[5mC]*d[5mC]*dT*dA*dG*dA*dT*dG*dG*dG*d[5mC]*eG*e[5mC]*eG*eA*eT) [compound 414017]”, for which the “inhibition of a TGF-beta1 mRNA” value was 60% and 65% and 70% and 75%. Also, the “% inhibition” value under setting [2] worked out at 77%. Turning to “414071 (antisense eT*eA*dG*dA*dA*dG*dT*d[5mC]*dA*dT*dT*dT*d[5mC]*dT*dA*eA*eT*eG*eA*eT) [compound 414071]”, under setting [1], the “% inhibition” value was 0%. “414007 (antisense eG*eG*dT*dA*d[5mC]*d[5mC]*dA*dG*dA*dA*dG*dG*dT*dG*dG*eG*eT*eG*eG*eT) [compound 414007]”: the “inhibition of a TGF-beta1 mRNA” value was 60% and 65% and 70% and 75% and 80% and 85% and 90%. Besides, under setting [2], the “% inhibition” value is on record as 94%.

As for “414009 (antisense eA*eT*d[5mC]*dT*dG*dG*dT*dA*d[5mC]*d[5mC]*dA*dG*dA*dA*dG*eG*eT*eG*eG*eG) [compound 414009]”, the “inhibition of a TGF-beta1 mRNA” value is 60% and 65% and 70% and 75% and 80%. Moreover, the “% inhibition” value under setting [2] worked out at 80%. With “414098 (antisense eA*eA*dG*dG*dG*dA*dG*dG*dA*dA*dT*dA*dA*dG*dG*eT*e[5mC]*eA*eG*eA) [compound 414098]”, the “inhibition of a TGF-beta1 mRNA” value was 60% and 65% and 70%. Besides, the “% inhibition” value under setting [1] stood at 70%. “414023 (antisense eT*e[5mC]*dG*dG*dG*d[5mC]*dT*d[5mC]*d[5mC]*dG*dG*dT*dT*d[5mC]*dT*eG*e[5mC]*eA*e[5mC]*eT) [compound 414023]”: the “inhibition of a TGF-beta1 mRNA” value is 60% and 65% and 70% and 75%. For the same substance, the “% inhibition” value under setting [2] turned out to be 78%.

These data come from US20110172296A1, “MODULATION OF TRANSFORMING GROWTH FACTOR-BETA 1 EXPRESSION” (priority 2010, published 2011).
